The target in the assay is T1, His6-AspH315–758 (human aspartate/asparagine-β-hydroxylase, AspH) (Homo sapiens, UniProt Q12797).
T1 construct: N-Terminally His6-tagged human AspH315–758 (His6-AspH315–758) was produced in E. coli BL21 (DE3) cells; made in house; host or cells: E. coli BL21 (DE3), pET-28a(+) vector
T1 sequence (Q12797 315-758): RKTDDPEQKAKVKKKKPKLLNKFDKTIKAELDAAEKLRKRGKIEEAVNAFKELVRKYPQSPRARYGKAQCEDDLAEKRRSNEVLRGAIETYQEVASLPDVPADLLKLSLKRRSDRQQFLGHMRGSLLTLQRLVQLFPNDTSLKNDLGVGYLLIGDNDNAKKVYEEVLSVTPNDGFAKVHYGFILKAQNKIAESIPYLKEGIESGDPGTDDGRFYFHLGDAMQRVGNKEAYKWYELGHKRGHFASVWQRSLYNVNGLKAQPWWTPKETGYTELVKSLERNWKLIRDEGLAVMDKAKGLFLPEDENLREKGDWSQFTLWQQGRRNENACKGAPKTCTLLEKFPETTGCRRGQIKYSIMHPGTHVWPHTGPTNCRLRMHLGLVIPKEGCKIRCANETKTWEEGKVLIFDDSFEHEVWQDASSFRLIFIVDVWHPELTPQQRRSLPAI
Briefly: SPE-MS AspH inhibition assay (LOPAC screen at fixed 20 μM and IC50 dose-response), hydroxylation of cyclic peptide hFX-CP101–119. To be noted: for inhibition at 20 µM: read-out: Plate 2 (% inhibition). In kind it is biochemical.

Setting [1] is: LOPAC compound at fixed 20 uM, plate 1, normalised to DMSO and 2,4-PDCA controls.
The mark [2] stands for this setting: LOPAC compound at fixed 20 uM, substrate conversion, plate 1.
[3] abbreviates: LOPAC Plate 4, compound at 20 uM.
Setting [4] is: LOPAC Plate 4, compound at 20 uM, substrate conversion.
Where [5] appears, read: LOPAC compound at 20uM, plate 2, conversion of substrate peptide.
Where [6] appears, read: LOPAC compound at 20uM, plate 2, normalised to DMSO and 2,4-PDCA controls.

Structures are written as SMILES. Counter-ions that a name gives are not always drawn. Like-named read-outs stand apart in the source and are kept apart here.

As for `CCCn1c(=O)[nH]c(=O)c2nc[nH]c21` [3-n-Propylxanthine], the “Plate 3 (% conversion)” value (LOPAC compound at 20uM, plate 3, conversion of substrate peptide) turned out to be 38.43%. Consider `Nc1ccc2c3c(cccc13)C(=O)NC2=O` [4-Amino-1,8-naphthalimide], for which the “Plate 1 (% inhibition)” value under setting [1] is recorded as -1.00%. The “Plate 1 (% conversion)” value under setting [2] is given as 36.21%. The corresponding values for `N=C(N)c1ccc(N)cc1` [4-Aminobenzamidine dihydrochloride] are -9.05% and 38.91%.

On to `Nc1ccncc1` [4-Aminopyridine], for which the “Plate 1 (% conversion)” value amounted to 34.98%. In the case of `C[N+]1(C)CCC(OC(=O)C(c2ccccc2)c2ccccc2)CC1.[I-]` [4-DAMP], the “% inhibition” value under setting [3] was -3.63%. Besides, the “% conversion” value under setting [4] is given as 37.71%. In the case of `COc1cc(CC(=O)O)ccc1O` [4-Hydroxy-3-methoxyphenylacetic acid], the “Plate 2 (% conversion)” value came out at 38.57%. The “Plate 2 (% inhibition)” value (20 µM) is reported as -7.80%.

For `Cl.NCCc1ccc(O)cc1` [4-Hydroxyphenethylamine hydrochloride], the “% inhibition” value under setting [3] is listed as -7.46%. The “% conversion” value under setting [4] worked out at 39.01%. Take `O=C(O)C=Cc1c[nH]cn1` [4-Imidazoleacrylic acid]: the “% conversion” value is reported as 20.39%. Turning to `Cl.OCc1c[nH]cn1` [4-Imidazolemethanol hydrochloride], the “Plate 2 (% conversion)” value is reported as 36.75%. In addition, under “20 µM”, the “Plate 2 (% inhibition)” value was -2.37%. Consider `O=C1NC(=O)C(c2ccccc2)(c2ccccc2)N1` [5,5-Diphenylhydantoin], for which, under setting [5], the “Plate 2 (% conversion)” value worked out at 35.84%. The inhibition at 20 µM under setting [6] was 0.33%. In the case of `O=C(O)c1cc(=O)c2c(Cl)cc(Cl)cc2[nH]1` [5,7-Dichlorokynurenic acid], under setting [5], the “Plate 2 (% conversion)” value turned out to be 35.63%. In addition, under setting [6], the “Plate 2 (% inhibition)” value came to 0.98%. For `CN(C)c1nc(N)c(C(=O)NC(=N)N)nc1Cl` [5-(N,N-Dimethyl)amiloride hydrochloride], the “Plate 1 (% inhibition)” value under setting [1] is -6.54%. Besides, under setting [2], the “Plate 1 (% conversion)” value is recorded as 38.07%.

Take `N=C(N)NC(=O)c1nc(Cl)c(N2CCCCCC2)nc1N` [5-(N,N-hexamethylene)amiloride]: the “Plate 1 (% inhibition)” value under setting [1] is reported as -28.14%. Further, the “Plate 1 (% conversion)” value under setting [2] turned out to be 45.32%. On the same counts, the results for `Cl.NCCCCC(=O)O` [5-Aminovaleric acid hydrochloride] are 15.05% and 30.82%. On to `NCCc1c[nH]c2ccc(C(N)=O)cc12.O=C(O)/C=C\C(=O)O` [5-Carboxamidotryptamine maleate], for which the “Plate 2 (% conversion)” value is 35.62%. Where the note is “20 µM”, the “Plate 2 (% inhibition)” value came to 0.99%. As to `O=C(O)c1cc2cc(F)ccc2[nH]1` [5-Fluoroindole-2-carboxylic acid], the “Plate 1 (% conversion)” value stood at 31.84% and the “Plate 1 (% inhibition)” value is listed as 12.00%. For the compound `O=c1[nH]cc(F)c(=O)[nH]1` [5-Fluorouracil], under setting [5], the “Plate 2 (% conversion)” value amounted to 36.11%. For the same compound, under setting [6], the inhibition at 20 µM was -0.46%. On the same counts, the results for `N[C@@H](Cc1c[nH]c2ccc(O)cc12)C(=O)O` [5-Hydroxy-L-tryptophan] are 37.59% and -4.87%.

Regarding `O=C(O)Cc1c[nH]c2ccc(O)cc12` [5-Hydroxyindolacetic acid], under setting [6], the “Plate 2 (% inhibition)” value is listed as -3.79%. For the compound `CCNC(=O)[C@H]1O[C@@H](n2cnc3c(N)ncnc32)[C@H](O)[C@@H]1O` [5-N-Ethylcarboxamidoadenosine], the “Plate 2 (% conversion)” value under setting [5] turned out to be 35.71%. Besides, the “Plate 2 (% inhibition)” value under setting [6] is 0.73%. In the case of `Nc1ncn([C@@H]2O[C@H](CO)[C@@H](O)[C@H]2O)c(=O)n1` [5-azacytidine], the “Plate 1 (% inhibition)” value under setting [1] was determined as 7.60%. Also, the “Plate 1 (% conversion)” value under setting [2] came out at 33.32%.

With `C[C@H]1O[C@@H](n2cc(F)c(=O)[nH]c2=O)[C@H](O)[C@@H]1O` [5-fluoro-5-deoxyuridine], the “Plate 2 (% conversion)” value under setting [5] is 36.33%. In addition, the “Plate 2 (% inhibition)” value under setting [6] is reported as -1.12%. On to `CCCCCC(O)CCCC(=O)O.[Na]` (stereo not drawn) [5-hydroxydecanoic acid sodium], for which the “Plate 2 (% conversion)” value under setting [5] stood at 36.96%. Moreover, the “Plate 2 (% inhibition)” value under setting [6] was -3.01%.

Values taken from publication PMC7251097, “Aspartate/asparagine-β-hydroxylase: a high-throughput mass spectrometric assay for discovery of small molecule inhibitors” (Scientific Reports, 2020).
